Tests used:
[1] = molecular target: T1, human NPFFR1 (hNPFFR1) receptor (Homo sapiens, UniProt Q9GZQ6); test: Human NPFFR1 evaluation using BRET biosensors (antagonist IC50); type: cell-based; conditions: hNPFFR1 transiently over-expressed in HEK-293 T cells; BRET signal; stimulation by EC80 RFRP-3
T1 construct: expressed in transfected cells; host or cells: HEK-293 T cells, transient co-transfection with polyethylenimine
Summary of the method: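 HEK-293T cells co-transfected with receptor, GαoB and Gi-effector BRET biosensor pair, assayed 48 h later. Compound 10 min, then EC80 RFRP-3 with 10 min luminescence read; IC50 from 20-concentration variable-slope fit, duplicate, two independent experiments.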

T1 sequence (Q9GZQ6 whole entry): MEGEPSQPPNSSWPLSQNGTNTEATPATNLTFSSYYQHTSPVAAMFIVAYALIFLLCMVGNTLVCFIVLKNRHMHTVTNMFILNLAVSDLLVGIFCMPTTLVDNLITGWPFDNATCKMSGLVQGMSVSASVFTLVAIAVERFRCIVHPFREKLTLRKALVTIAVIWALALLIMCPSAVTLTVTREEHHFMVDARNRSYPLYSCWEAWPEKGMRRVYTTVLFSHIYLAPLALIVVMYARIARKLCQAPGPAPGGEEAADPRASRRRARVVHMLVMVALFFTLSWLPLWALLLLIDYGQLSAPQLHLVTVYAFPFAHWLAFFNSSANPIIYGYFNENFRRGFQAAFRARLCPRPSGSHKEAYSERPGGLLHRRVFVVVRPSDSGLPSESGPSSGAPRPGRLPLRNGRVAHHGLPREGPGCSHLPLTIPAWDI

SMILES | IC50 [1] [nM] | melting point [°C]
CCc1nc(N)ccc1-c1cccc2ccc(C3CCOCC3)nc12.Cl [Example 121, 6-ethyl-5-(2-(tetrahydro-2H-pyran-4-yl)quinolin-8-yl)pyridin-2-amine] | < 100 | 175 to 185
CCc1nc(N)ccc1-c1cccc2cc3c(nc12)CCN(C)C3.Cl.Cl [Example 114, 6-ethyl-5-(2-methyl-1,2,3,4-tetrahydrobenzo[b][1,6]naphthyridin-6-yl)pyridin-2-amine] | 100 to 1000 | 197 to 211
Cc1cc(-c2ccc(N)nc2N)c2ncccc2c1.Cl [Example 53, 3-(6-methylquinolin-8-yl)pyridine-2,6-diamine] | < 100 | 180 to 200
CCc1nc(N)ccc1-c1cc(F)cc2cccnc12.Cl [Example 74, 6-ethyl-5-(6-fluoroquinolin-8-yl)pyridin-2-amine] | < 100 | 50 to 56
CCc1nc(N)ccc1-c1c(C(F)(F)F)ccc2cccnc12.Cl [Example 109, 6-ethyl-5-(7-(trifluoromethyl)quinolin-8-yl)pyridin-2-amine] | < 100 | 150 to 180
Cl.Nc1ccc(-c2cccc3ccsc23)c(N)n1 [Example 29, 3-(Benzothiophen-7-yl)pyridine-2,6-diamine] | 100 to 1000 | 100 to 113
CCc1nc(N)ccc1-c1c(F)ccc2ccc(N3CC4CCC(C3)O4)nc12.Cl [Example 136, 5-(2-(8-oxa-3-azabicyclo[3.2.1]octan-3-yl)-7-fluoroquinolin-8-yl)-6-ethylpyridin-2-amine] | < 100 | 140 to 172
CCc1nc(N)ccc1-c1c(F)c(F)cc2ccc(O)nc12.Cl [Example 161, 8-(6-amino-2-ethylpyridin-3-yl)-6,7-difluoroquinolin-2(1H)-one] | 100 to 1000 | > 250
CCc1nc(N)ccc1-c1cccc2ccc(-c3cnccn3)nc12.Cl [Example 126, 6-ethyl-5-(2-(pyrazin-2-yl)quinolin-8-yl)pyridin-2-amine] | < 100 | > 250
Cl.Nc1ccc(-c2c(F)ccc3cccnc23)c(CCC(F)(F)F)n1 [Example 69, 5-(7-fluoroquinolin-8-yl)-6-(3,3,3-trifluoropropyl)pyridin-2-amine] | 100 to 1000 | 85 to 145
CCc1nc(N)ccc1-c1cccc2ccncc12.Cl [Example 6, 6-Ethyl-5-(8-isoquinolyl)pyridin-2-amine] | < 100 | > 250
CC(C)Cc1nc(N)ccc1-c1c(F)ccc2cccnc12.Cl [Example 70, 5-(7-fluoroquinolin-8-yl)-6-isobutylpyridin-2-amine] | < 100 | 130 to 170
CCc1nc(N)ccc1-c1cccc2ccc(-c3cnccc3C)nc12.Cl [Example 127, 6-ethyl-5-(2-(4-methylpyridin-3-yl)quinolin-8-yl)pyridin-2-amine] | < 100 | 180 to 188
CCc1nc(N)ccc1-c1cccc2c1NCC2.Cl [Example 164, 6-ethyl-5-(indolin-7-yl)pyridin-2-amine] | 100 to 1000 | 175 to 183
CCc1nc(N)ccc1-c1cccc2nccn12.Cl [Example 103, 6-ethyl-5-(imidazo[1,2-a]pyridin-5-yl)pyridin-2-amine] | > 1000 | 115 to 155
Cl.Nc1ccc(-c2cccc3c2sc2ccccc23)c(N)n1 [Example 39, 3-Dibenzothiophen-4-ylpyridine-2,6-diamine] | < 100 | 165 to 170
CCc1nc(N)ccc1-c1ccccc1-c1ccc(N2CCOCC2)nc1.Cl [Example 84, 6-ethyl-5-(2-(6-morpholinopyridin-3-yl)phenyl)pyridin-2-amine] | < 100 | 95 to 110
Nc1ccc(-c2c[nH]c3ccccc23)c(N)n1 [Example 18, 3-(1H-indol-3-yl)pyridine-2,6-diamine] | > 1000 | 152 to 155
CC(C)c1nc(N)ccc1-c1cccc2cccnc12.Cl [Example 11, 6-Isopropyl-5-(8-quinolyl)pyridin-2-amine] | < 100 | > 250
CCc1nc(N)ccc1-c1csc2ccc(C)cc12.Cl [Example 42, 6-Ethyl-5-(5-methylbenzothiophen-3-yl)pyridin-2-amine] | 100 to 1000 | 64 to 88
CCc1nc(N)ccc1-c1c(F)ccc2ccc(N3CCCOCC3)nc12.Cl [Example 134, 6-ethyl-5-(7-fluoro-2-(1,4-oxazepan-4-yl)quinolin-8-yl)pyridin-2-amine] | < 100 | 100 to 150
Nc1ccc(-c2cccc3cc[nH]c23)c(N)n1 [Example 25, 3-(1H-indol-7-yl)pyridine-2,6-diamine] | < 100 | 62 to 70

SMILES | IC50 [1] [nM] | melting point [°C]
CCc1nc(N)ccc1-c1cccc2ccc(-c3cnoc3)nc12 [Example 125, 6-ethyl-5-(2-(isoxazol-4-yl)quinolin-8-yl)pyridin-2-amine] | < 100 | 178 to 182
CCc1nc(N)ccc1-c1csc2ccccc12 [Example 4, 5-Benzo[b]thiophen-3-yl-6-ethyl-pyridin-2-ylamine] | 100 to 1000 | 108 to 120
CCc1nc(N)ccc1-c1ccccc1-c1cncc(C)c1.Cl [Example 85, 6-ethyl-5-(2-(5-methylpyridin-3-yl)phenyl)pyridin-2-amine] | 100 to 1000 | 120 to 150
CCc1nc(N)ccc1-c1cccc2ccnn12.Cl [Example 104, 6-ethyl-5-(pyrazolo[1,5-a]pyridin-7-yl)pyridin-2-amine] | 100 to 1000 | 234 to 243
CCOc1ccc2cccc(-c3ccc(N)nc3CC)c2n1.Cl [Example 94, 5-(2-ethoxyquinolin-8-yl)-6-ethylpyridin-2-amine] | < 100 | 35 to 70
Cl.Nc1ccc(-c2cccc3c2OCC3)c(N)n1 [Example 28, 3-(2,3-Dihydrobenzofuran-7-yl)pyridine-2,6-diamine] | 100 to 1000 | > 250
CCc1nc(N)ccc1-c1cccc2ccc(C(F)(F)F)nc12.Cl [Example 99, 6-ethyl-5-(2-(trifluoromethyl)quinolin-8-yl)pyridin-2-amine] | < 100 | 90 to 130
Cl.Nc1ccc(-c2c(F)ccc3cccnc23)c(CC2CC2)n1 [Example 72, 6-(cyclopropylmethyl)-5-(7-fluoroquinolin-8-yl)pyridin-2-amine] | < 100 | 170 to 207
Nc1ccc(-c2coc3ccccc23)c(N)n1 [Example 20, 3-(Benzofuran-3-yl)pyridine-2,6-diamine] | 100 to 1000 | 109 to 112
CC(C)CCc1nc(N)ccc1-c1c(F)ccc2cccnc12.Cl [Example 73, 5-(7-fluoroquinolin-8-yl)-6-isopentylpyridin-2-amine] | < 100 | 100 to 140
CCc1nc(N)ccc1-c1csc2ccc(F)cc12.Cl [Example 43, 6-Ethyl-5-(5-fluorobenzothiophen-3-yl)pyridin-2-amine] | 100 to 1000 | > 250
CCCc1nc(N)ccc1-c1cccc2cccnc12.Cl [Example 8, 6-Propyl-5-(8-quinolyl)pyridin-2-amine] | < 100 | 80 to 120
CCc1nc(N)ccc1-c1cccc2ccc(-c3ccncc3)nc12.Cl [Example 122, 6-ethyl-5-(2-(pyridin-4-yl)quinolin-8-yl)pyridin-2-amine] | < 100 | > 250
Nc1ccc(-c2csc3ccc(F)cc23)c(N)n1 [Example 22, 3-(5-Fluoro-benzo[b]thiophen-3-yl)pyridine-2,6-diamine] | 100 to 1000 | 116 to 118
Cl.Nc1ccc(-c2cc(F)cc3cccnc23)c(N)n1 [Example 52, 3-(6-fluoroquinolin-8-yl)pyridine-2,6-diamine] | < 100 | > 250
Nc1ccc(-c2cncc3ccccc23)c(N)n1 [Example 36, 3-Isoquinolin-4-yl-pyridine-2,6-diamine] | > 1000 | 180 to 185
CCc1nc(N)ccc1-c1c(C)ccc2cccnc12.Cl [Example 93, 6-ethyl-5-(7-methylquinolin-8-yl)pyridin-2-amine] | < 100 | 90 to 130
Cl.Nc1ccc(-c2c(F)cc(F)c3cc(F)cnc23)c(N)n1 [Example 61, 3-(3,5,7-trifluoroquinolin-8-yl)pyridine-2,6-diamine] | < 100 | > 250
CCc1nc(N)ccc1-c1cccc2c1N(C)CCC2.Cl [Example 165, 6-ethyl-5-(1-methyl-1,2,3,4-tetrahydroquinolin-8-yl)pyridin-2-amine] | 100 to 1000 | 155 to 165
CCc1nc(N)ccc1-c1nccc2cccnc12.Cl [Example 100, 6-ethyl-5-(1,7-naphthyridin-8-yl)pyridin-2-amine] | > 1000 | 160 to 200
Cl.Nc1ccc(-c2cccc3c2oc2ccccc23)c(N)n1 [Example 40, 3-Dibenzofuran-4-ylpyridine-2,6-diamine] | < 100 | 135 to 143
CCc1nc(N)ccc1-c1cccc2ccc(COC)nc12.Cl [Example 142, 6-ethyl-5-(2-(methoxymethyl)quinolin-8-yl)pyridin-2-amine] | < 100 | 210 to 225

Source: patent US20220298135A1, “5-HETEROARYL-PYRIDIN-2-AMINE COMPOUNDS AS NEUROPEPTIDE FF RECEPTOR ANTAGONISTS” (Domain Therapeutics, priority 2019, published 2022)
